According to US20050227989A1, “Polycyclic thiazoles as potassium ion channel modulators” (ICAgen, Inc., priority 2004, published 2005):

Molecular target: SK2 subtype channels (Rattus norvegicus, UniProt P70604)
Experiment: not given
Conditions: patch clamp; cited from earlier work

In the case of `CN(C)CCC=C1c2ccccc2CCc2ccccc21` [amitriptyline], the “block of SK2 channel currents” value is given as “block SK2 channel currents with micromolar affinity”.

Molecular target: hSK2 (Homo sapiens, UniProt Q9H2S1)
Experiment: 86Rb+ efflux assay for compound activity towards hSK channels
Format: cell-based
Conditions: 86Rb+ efflux stimulated with calcium ionophore; drug 0.01 to 30 μM in EBSS; read-out: hSK2 Inhibitory Activity

First: O=C1CCCN1c1ccc(Nc2nc(-c3cnccn3)cs2)nc1 [1-[6-(4-Pyrazin-2-yl-thiazol-2-ylamino)-pyridin-3-yl]-pyrrolidin-2-one]
Second: O=C1CCCN1c1ccc(Nc2nc(-c3nccs3)cs2)nc1 [1-[6-([2,4′]Bithiazolyl-2′-ylamino)-pyridin-3-yl]-pyrrolidin-2-one]
The IC50 of the first is lower: less than 30 nM for the first, 30 to 100 nM for the second.

`CN1CCN(c2ccc(Nc3nc(-c4cnccn4)cs3)nc2)C(=O)C1` [4-Methyl-1-[6-(4-pyrazin-2-yl-thiazol-2-ylamino)-pyridin-3-yl]-piperazin-2-one] and `CN1CCN(c2ccc(Nc3nc(-c4ccccn4)cs3)nc2)C(=O)C1` [4-Methyl-1-[6-(4-pyridin-2-yl-thiazol-2-ylamino)-pyridin-3-yl]-piperazin-2-one] fall in the same range of IC50: 1000 to 30000 nM for the first, 1000 to 30000 nM for the second.

First: COC(=O)c1ccc(Nc2nc(-c3ccccn3)cs2)nc1 [6-(4-Pyridin-2-yl-thiazol-2-ylamino)-nicotinic acid methyl ester]
Second: c1ccc(-c2csc(Nc3nc4ccccc4[nH]3)n2)nc1 [(1H-Benzoimidazol-2-yl)-(4-pyridin-2-yl-thiazol-2-yl)-amine]
The IC50 of the first is higher: 1000 to 30000 nM for the first, 100 to 1000 nM for the second. The second is the more potent here.

`Cc1cnc(Nc2nc(-c3ccccn3)cs2)c(Br)c1` [(3-Bromo-5-methyl-pyridin-2-yl)-(4-pyridin-2-yl-thiazol-2-yl)-amine] and `Cc1cc(C)nc(Nc2nc(-c3ccccn3)cs2)c1` [(4,6-Dimethyl-pyridin-2-yl)-(4-pyridin-2-yl-thiazol-2-yl)-amine] fall in the same range of IC50: 1000 to 30000 nM for the first, 1000 to 30000 nM for the second.

`CC1CCN(c2ccc(Nc3nc(-c4ccccn4)cs3)nc2)CC1` [(4-Methyl-3,4,5,6-tetrahydro-2H-[1,3′]bipyridinyl-6′-yl)-(4-pyridin-2-yl-thiazol-2-yl)-amine] and `Cc1ccnc(Nc2nc(-c3cnccn3)cs2)c1` [(4-Methyl-pyridin-2-yl)-(4-pyrazin-2-yl-thiazol-2-yl)-amine] fall in the same range of IC50: 30 to 100 nM for the first, 30 to 100 nM for the second.

First: Cc1ccnc(Nc2nc(-c3cc(C)ccn3)cs2)c1 [(4-Methyl-pyridin-2-yl)-[4-(4-methyl-pyridin-2-yl)-thiazol-2-yl]-amine]
Second: FC(F)(F)c1ccc(Nc2nc(-c3ccccn3)cs2)nc1 [(4-Pyridin-2-yl-thiazol-2-yl)-(5-trifluoromethyl-pyridin-2-yl)-amine]
The IC50 of the first is lower: 30 to 100 nM for the first, 1000 to 30000 nM for the second.

`c1ccc(-c2csc(Nc3nccs3)n2)nc1` [(4-Pyridin-2-yl-thiazol-2-yl)-thiazol-2-yl-amine] and `Brc1sc(Nc2ccccn2)nc1-c1ccccn1` [(5-Bromo-4-pyridin-2-yl-thiazol-2-yl)-pyridin-2-yl-amine] fall in the same range of IC50: 1000 to 30000 nM for the first, 1000 to 30000 nM for the second.

First: Brc1ccc(Nc2nc(-c3ccccn3)cs2)nc1 [(5-Bromo-pyridin-2-yl)-(4-pyridin-2-yl-thiazol-2-yl)-amine]
Second: Cc1ccnc(Nc2nc(-c3ccccn3)c(Cl)s2)c1 [(5-Chloro-4-pyridin-2-yl-thiazol-2-yl)-(4-methyl-pyridin-2-yl)-amine]
The IC50 of the first is higher: 1000 to 30000 nM for the first, 100 to 1000 nM for the second. The second is the more potent here.

`Fc1ccc(Nc2nc(-c3ccccn3)cs2)nc1` [(5-Fluoro-pyridin-2-yl)-(4-pyridin-2-yl-thiazol-2-yl)-amine] and `CCCCCCc1ccc(Nc2nc(-c3ccccn3)cs2)nc1` [(5-Hexyl-pyridin-2-yl)-(4-pyridin-2-yl-thiazol-2-yl)-amine] fall in the same range of IC50: 1000 to 30000 nM for the first, 1000 to 30000 nM for the second.

`Cc1cc(I)cnc1Nc1nc(-c2ccccn2)cs1` [(5-Iodo-3-methyl-pyridin-2-yl)-(4-pyridin-2-yl-thiazol-2-yl)-amine] and `Cc1cc(Nc2nc(-c3ccccn3)cs2)ncc1I` [(5-Iodo-4-methyl-pyridin-2-yl)-(4-pyridin-2-yl-thiazol-2-yl)-amine] fall in the same range of IC50: 100 to 1000 nM for the first, 100 to 1000 nM for the second.

First: C=C(C)c1ccc(Nc2nc(-c3cnccn3)cs2)nc1 [(5-Isopropenyl-pyridin-2-yl)-(4-pyrazin-2-yl-thiazol-2-yl)-amine]
Second: CC(C)c1ccc(Nc2nc(-c3cnccn3)cs2)nc1 [(5-Isopropyl-pyridin-2-yl)-(4-pyrazin-2-yl-thiazol-2-yl)-amine]
The IC50 of the first is lower: 100 to 1000 nM for the first, 1000 to 30000 nM for the second. The first is the more potent here.

Compared with `CC(C)c1ccc(Nc2nc(-c3ccccn3)cs2)nc1` [(5-Isopropyl-pyridin-2-yl)-(4-pyridin-2-yl-thiazol-2-yl)-amine], `COc1sc(Nc2ccccn2)nc1-c1ccccn1` [(5-Methoxy-4-pyridin-2-yl-thiazol-2-yl)-pyridin-2-yl-amine] is higher in IC50: 30 to 100 nM for the first, 1000 to 30000 nM for the second. The first is the more potent here.

First: Cc1sc(Nc2ccccn2)nc1-c1ccccn1 [(5-Methyl-4-pyridin-2-yl-thiazol-2-yl)-pyridin-2-yl-amine]
Second: Cc1ccc(Nc2nc(-c3cnccn3)cs2)nc1 [(5-Methyl-pyridin-2-yl)-(4-pyrazin-2-yl-thiazol-2-yl)-amine]
The IC50 of the first is lower: less than 30 nM for the first, 30 to 100 nM for the second. The first is the more potent here.

First: CSc1sc(Nc2ccccn2)nc1-c1ccccn1 [(5-Methylsulfanyl-4-pyridin-2-yl-thiazol-2-yl)-pyridin-2-yl-amine]
Second: c1ccc(-c2csc(Nc3ccc(N4CCOCC4)cn3)n2)nc1 [(5-Morpholin-4-yl-pyridin-2-yl)-(4-pyridin-2-yl-thiazol-2-yl)-amine]
The IC50 of the first is higher: 1000 to 30000 nM for the first, 30 to 100 nM for the second.

`c1ccc(-c2ccc(Nc3nc(-c4ccccn4)cs3)nc2)cc1` [(5-Phenyl-pyridin-2-yl)-(4-pyridin-2-yl-thiazol-2-yl)-amine] and `CC(C)(C)c1ccc(Nc2nc(-c3ccccn3)cs2)nc1` [(5-tert-Butyl-pyridin-2-yl)-(4-pyridin-2-yl-thiazol-2-yl)-amine] fall in the same range of IC50: 1000 to 30000 nM for the first, 1000 to 30000 nM for the second.

First: c1ccc(Nc2csc(Nc3ccccn3)n2)nc1 [N^2,N^4-Di-pyridin-2-yl-thiazole-2,4-diamine]
Second: Nc1ccc(Nc2nc(-c3nccs3)cs2)nc1 [N^2-[2,4′]Bithiazolyl-2′-yl-pyridine-2,5-diamine]
The IC50 of the first is higher: 1000 to 30000 nM for the first, 30 to 100 nM for the second.

Compared with `c1ccc(Nc2nc(-c3ccccn3)cs2)nc1` [Pyridin-2-yl-(4-pyridin-2-yl-thiazol-2-yl)-amine], `c1ccc(Nc2nc(-c3cccs3)cs2)nc1` [Pyridin-2-yl-(4-thiophen-2-yl-thiazol-2-yl)-amine] is higher in IC50: less than 30 nM for the first, 1000 to 30000 nM for the second.

First: Cc1ccnc(Nc2nc(-c3nccs3)cs2)c1 [[2,4′]Bithiazolyl-2′-yl-(4-methyl-pyridin-2-yl)-amine]
Second: Brc1ccc(Nc2nc(-c3nccs3)cs2)nc1 [[2,4′]Bithiazolyl-2′-yl-(5-bromo-pyridin-2-yl)-amine]
The IC50 of the first is lower: 100 to 1000 nM for the first, 1000 to 30000 nM for the second. The first is the more potent here.

`Clc1ccc(Nc2nc(-c3nccs3)cs2)nc1` [[2,4′]Bithiazolyl-2′-yl-(5-chloro-pyridin-2-yl)-amine] and `C=C(C)c1ccc(Nc2nc(-c3nccs3)cs2)nc1` [[2,4′]Bithiazolyl-2′-yl-(5-isopropenyl-pyridin-2-yl)-amine] fall in the same range of IC50: 1000 to 30000 nM for the first, 1000 to 30000 nM for the second.

Compared with `CC(C)c1ccc(Nc2nc(-c3nccs3)cs2)nc1` [[2,4′]Bithiazolyl-2′-yl-(5-isopropyl-pyridin-2-yl)-amine], `COc1ccc(Nc2nc(-c3nccs3)cs2)nc1` [[2,4′]Bithiazolyl-2′-yl-(5-methoxy-pyridin-2-yl)-amine] is lower in IC50: 1000 to 30000 nM for the first, 100 to 1000 nM for the second.

First: c1csc(-c2csc(Nc3ccc(N4CCOCC4)cn3)n2)n1 [[2,4′]Bithiazolyl-2′-yl-(5-morpholin-4-yl-pyridin-2-yl)-amine]
Second: O=[N+]([O-])c1ccc(Nc2nc(-c3nccs3)cs2)nc1 [[2,4′]Bithiazolyl-2′-yl-(5-nitro-pyridin-2-yl)-amine]
The IC50 of the first is lower: 100 to 1000 nM for the first, 1000 to 30000 nM for the second.

`c1csc(-c2ccc(Nc3nc(-c4nccs4)cs3)nc2)c1` [[2,4′]Bithiazolyl-2′-yl-(5-thiophen-2-yl-pyridin-2-yl)-amine] and `CN1CCN(c2ccc(Nc3nc(-c4nccs4)cs3)nc2)CC1` [[2,4′]Bithiazolyl-2′-yl-[5-(4-methyl-piperazin-1-yl)-pyridin-2-yl]-amine] fall in the same range of IC50: 1000 to 30000 nM for the first, 1000 to 30000 nM for the second.

`c1cncc(-c2ccc(Nc3nc(-c4nccs4)cs3)nc2)c1` [[3,3′]Bipyridinyl-6-yl-[2,4′]bithiazolyl-2′-yl-amine] and `Cc1ccnc(Nc2nc(-c3c(C)nc4cc(C)ccn34)cs2)c1` [[4-(2,7-Dimethyl-imidazo[1,2-a]pyridin-3-yl)-thiazol-2-yl]-(4-methyl-pyridin-2-yl)-amine] fall in the same range of IC50: 1000 to 30000 nM for the first, 1000 to 30000 nM for the second.

`Cc1ccnc(Nc2nc(-c3c(C)nc4ccccn34)cs2)c1` [[4-(2-Methyl-imidazo[1,2-a]pyridin-3-yl)-thiazol-2-yl]-(4-methyl-pyridin-2-yl)-amine] and `Cc1ccnc(Nc2nc(-c3c(C)nc4ncccn34)cs2)c1` [[4-(2-Methyl-imidazo[1,2-a]pyrimidin-3-yl)-thiazol-2-yl]-(4-methyl-pyridin-2-yl)-amine] fall in the same range of IC50: 1000 to 30000 nM for the first, 1000 to 30000 nM for the second.

“[(4-Methyl-pyridin-2-yl)-(4-pyridin-2-yl-thiazol-2-yl)-amine]2 Fe(II) nH2ClO4 Complex” and “[(4-Methyl-pyridin-2-yl)-(4-pyridin-2-yl-thiazol-2-yl)-amine]2 Zn(II) nHCl Complex” cannot be ordered by IC50: less than 30 nM for the first, less than 30 nM for the second.

Same assay, conditions: read-out: hSK2 Inhibitory Activity

With `c1ccc(-c2csc(Nc3ncccn3)n2)nc1` [(4-Pyridin-2-yl-thiazol-2-yl)-pyrimidin-2-yl-amine] the IC50 was 1000 to 30000 nM.

Molecular target: T1, recombinant human SK4 (hIK1 or hKCa4) channels (Homo sapiens, UniProt O15554+P0DP23)
T1 construct: host or cells: HEK 293
Experiment: not given
Conditions: applied to the inside of SK4 channel-expressing membrane patches; cited from earlier work

In the case of `[Ba+2]` [Barium], the “activation of SK4 channels” value is listed as “activated SK4 channels in a concentration-dependent manner”.
For `[Cd]` [cadmium], the “activation of SK4 channels” value is given as “activated SK4 channels in a concentration-dependent manner”.
For `[Ca+2]` [calcium], the “activation of SK4 channels” value is given as “activated SK4 channels in a concentration-dependent manner”.
In the case of `[Co+2]` [cobalt], the “activation of SK4 channels” value is listed as “did not activate”.
In the case of `[Fe]` [iron], the “activation of SK4 channels” value is listed as “did not activate”.
In the case of `[Pb+2]` [lead], the “activation of SK4 channels” value is listed as “activated SK4 channels in a concentration-dependent manner”.
In the case of `[Mg+2]` [magnesium], the “activation of SK4 channels” value is listed as “did not activate”.
For `[Sr+2]` [strontium], the “activation of SK4 channels” value is given as “activated SK4 channels in a concentration-dependent manner”.
For `[Zn+2]` [zinc], the “activation of SK4 channels” value is given as “did not activate”.
